A value given as a limit tells only on which side of the number the result lay.

The source of these data is paper PMC5352051, “Identification of a novel Polo-like kinase 1 inhibitor that specifically blocks the functions of Polo-Box domain” (Oncotarget, 2016).

Assay [1] deals with normal cell lines, MRC5, HEK-293 and L02 cells. Kind of assay: MTT assay, panel of normal cell lines. In kind it is cell-based. The conditions noted are these: Homo sapiens; three exponentially growing normal cell lines; read-out: IC50 proliferation, range over cell lines. The method, then:
(§1) The MTT assay was performed as described. In brief, cells were seeded at 3000~5000 cells/well into 96-well plates (200 μL/well) and incubated overnight. We replaced the growth medium with fresh medium containing T521 at several concentrations (two-fold dilutions and the initial concentration is 50 μM, 10 reactions total). After further incubation for 48 hrs in the presence of T521, the medium was removed from all wells and the cells were incubated with 200 μL of fresh medium for additional 24 hrs. We then added 22 μL of MTT solution (Amresco; 5 mg/mL in PBS) to each well and incubated the plate for 4 hrs at 37°C. After removing the medium, we dissolved the purple MTT-formazan crystals by adding 150 μL of DMSO to each well and recorded absorbance at 560 nm by Envision Multilabel Reader (PerkinElmer). The inhibition curve was plotted to determine the IC50 of various cell lines using GraphPad Prism5.0.
A general note: Tetrazolium dyes change colour on reduction, which living cells bring about.

For assay [2], the system named is 12 human cancer cell lines. Kind of assay: MTT assay, panel of cancer cell lines. In kind it is cell-based. The conditions noted are these: all tested 12 human cancer cell lines; read-out: IC50 proliferation, range over cell lines. The method, then: as §1
For a further assay, the system named is HCT-116. Kind of assay: MTT assay. The conditions noted are these: Homo sapiens; HCT-116, Colon, tumor; read-out: IC50 proliferation. In kind it is cell-based. The procedure: as §1
For the next assay, the system named is MRC-5. Kind of assay: MTT assay. It is filed as cell-based. The conditions noted are these: Homo sapiens, MRC5; MRC-5, Lung, normal; read-out: IC50 proliferation. The method, then:
as §1

The subject of another assay is PC3. Kind of assay: MTT assay. In kind it is cell-based. The conditions noted are these: Homo sapiens, PC-3; PC3, Prostate, tumor; read-out: IC50 proliferation. The procedure: as §1
Another assay concerns U-2OS. Nature of the assay: MTT assay. It is filed as cell-based. The conditions noted are these: Homo sapiens, U2OS, Bone, tumor, read-out: IC50 proliferation. The procedure: as §1
The subject of a further assay is L02. Nature of the assay: MTT assay. It is filed as cell-based. The conditions noted are these: Homo sapiens; L02, Liver, normal; read-out: IC50 proliferation. The method, then:
as §1

Another assay relates to HeLa. Kind of assay: MTT assay. In kind it is cell-based. The conditions noted are these: Homo sapiens, Cervix, tumor, read-out: IC50 proliferation. The procedure:
as §1

A further assay concerns MG63. Kind of assay: MTT assay. It is filed as cell-based. The conditions noted are these: Homo sapiens, MG-63; MG63, Bone, tumor; read-out: IC50 proliferation. The procedure:
as §1

In another assay the test system is HepG2. Kind of assay: MTT assay. In kind it is cell-based. The conditions noted are these: Homo sapiens; HepG2, Liver, tumor; read-out: IC50 proliferation. The method, then: as §1
The subject of the next assay is HEK-293. Kind of assay: MTT assay. The conditions noted are these: Homo sapiens, HEK293; HEK-293, Kidney, normal; read-out: IC50 proliferation. It is filed as cell-based. The procedure:
as §1

Another assay deals with MCF-7. Kind of assay: MTT assay. In kind it is cell-based. The conditions noted are these: Homo sapiens, MCF7; MCF-7, Breast, tumor; read-out: IC50 proliferation. The method, then:
as §1

The test system of the next assay is SaOS-2. Nature of the assay: MTT assay. It is filed as cell-based. The conditions noted are these: Homo sapiens; SaOS-2, Bone, tumor; read-out: IC50 proliferation. The procedure:
as §1

The test system of the next assay is A549. Nature of the assay: MTT assay. The conditions noted are these: Homo sapiens; A549, Lung, tumor; read-out: IC50 proliferation. It is filed as cell-based. The procedure:
as §1

A further assay concerns SH-SY5Y. Kind of assay: MTT assay. The conditions noted are these: Homo sapiens, Brain, tumor, read-out: IC50 proliferation. It is filed as cell-based. The method, then: as §1
Another assay deals with T1, Plk1 PBD (Homo sapiens, UniProt P53350).
T1 construct: (326-603 aa), Plk2 (355-685 aa), and Plk3 (335-646 aa); 6xHis (N); 6xHis (C); made in house; host or cells: E. coli Rosetta BL21(DE3)
T1 sequence (P53350 326-603): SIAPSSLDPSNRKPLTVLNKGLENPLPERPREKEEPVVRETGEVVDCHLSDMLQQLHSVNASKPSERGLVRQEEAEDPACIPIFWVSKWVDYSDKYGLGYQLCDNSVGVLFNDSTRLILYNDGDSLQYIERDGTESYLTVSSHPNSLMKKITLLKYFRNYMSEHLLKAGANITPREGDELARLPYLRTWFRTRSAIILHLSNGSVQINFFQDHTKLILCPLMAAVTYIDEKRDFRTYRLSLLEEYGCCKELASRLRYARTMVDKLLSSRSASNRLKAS
Nature of the assay: Fluorescence polarization assay, Plk1 PBD / FITC-Poloboxtide. It is filed as binding. The method, then: (§2) FP assay was performed as follow. […] We calculated the percentage of inhibition for each sample as follows: Inhibition(%)=Negative−Sample/Negative−Positive×100%
(§3) We plotted the inhibition values and determined IC50 using GraphPad Prism5.0. Together with the FITC-labeled peptides used for Plk1 PBD as mentioned above, the following peptides were used for specificity assays, FITC-GPMQTSpTPKNG-OH (Plk2 PBD), FITC-GPLATSpTPKNG-OH (Plk3 PBD).
A general note: Polarisation of emitted light reports the rotation of a fluorescent probe.

The next assay addresses T2, Plk3 PBD (Homo sapiens, UniProt Q9H4B4).
T2 construct: (326-603 aa), Plk2 (355-685 aa), and Plk3 (335-646 aa); GST (N); made in house; host or cells: E. coli Rosetta BL21(DE3)
T2 sequence (Q9H4B4 335-646): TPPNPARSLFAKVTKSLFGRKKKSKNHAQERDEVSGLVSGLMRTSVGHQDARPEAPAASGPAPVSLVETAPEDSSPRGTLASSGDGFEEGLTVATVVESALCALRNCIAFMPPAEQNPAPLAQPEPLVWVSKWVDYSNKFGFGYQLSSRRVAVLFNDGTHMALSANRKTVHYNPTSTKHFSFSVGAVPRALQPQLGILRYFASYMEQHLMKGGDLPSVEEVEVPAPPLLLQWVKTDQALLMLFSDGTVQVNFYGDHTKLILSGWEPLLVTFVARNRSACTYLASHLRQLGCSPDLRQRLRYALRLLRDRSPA
Kind of assay: Fluorescence polarization assay, Plk3 PBD / FITC-labeled phosphopeptide. It is filed as binding. The conditions noted are these: Plk3 PBD. The method, then:
as §2, §3

With `CCS(=O)(=O)c1oc(-c2ccc(F)cc2)nc1S(=O)(=O)c1ccccc1` [T521, 5-(ethylsulfonyl)-2-(4-fluorophenyl)-4-(phenylsulfonyl) oxazole], the IC50 in assay [1] is 3 to 10 µM; in assay [2], 1 to 5 µM; in the assay with HCT-116, 3.55 µM; in the assay with MRC-5, 2.64 µM; in the assay on PC3, 1.09 µM; in the assay on U-2OS, 1.06 µM. For the same compound, the IC50 in the assay with L02 was determined as 7.11 µM; with HeLa, 4.43 µM; with MG63, 6.25 µM; in the assay with HepG2 it was 3.17 µM; with HEK-293, 8.66 µM; in the assay with MCF-7, 1.58 µM. The IC50 in the assay with SaOS-2 is 1.56 µM; with A549, 3.56 µM; in the assay with SH-SY5Y it was 1.37 µM; on Plk1 PBD (Plk1 PBD, FP assay, 1 hr preincubation at RT, read-out: Apparent IC50), 1.22 ± 0.13 µM; on Plk3 PBD (FP assay, 1 hr preincubation at RT, read-out: Apparent IC50), over 500 µM. Also, the “temperature dependence of inhibition of Plk1 PBD / FITC-Poloboxtide interaction” value on Plk1 PBD (1 hr incubation at indicated temperatures) is listed as “more efficient at higher temperatures”. On Plk1 PBD (incubation for indicated times at RT), the “time dependence of inhibition of Plk1 PBD / FITC-Poloboxtide interaction” value is recorded as “inhibition increased over time”. For the same compound, the “inhibition of binding of PBD to FITC-labeled phosphopeptide” value on Plk3 PBD (concentration as high as 500 μM) is “little inhibition”.
